Legend:
Assay type in all cases: cell membranes
Homo sapiens [1] = species on record: Homo sapiens; experiment: Selectivity ratio of IC50 for recombinant human CYP1A2 expressed in Escherichia coli membranes to IC50 for recombinant human CYP1B1 expressed in Escherichia coli membranes
Homo sapiens [2] = species on record: Homo sapiens; experiment: Selectivity ratio of IC50 for recombinant human CYP1A1 expressed in Escherichia coli membranes to IC50 for recombinant human CYP1A2 expressed in Escherichia coli membranes
Homo sapiens [3] = species on record: Homo sapiens; experiment: Selectivity ratio of IC50 for recombinant human CYP1A1 expressed in Escherichia coli membranes to IC50 for recombinant human CYP1B1 expressed in Escherichia coli membranes
Cytochrome P450 1A2 = biological target: T1, Cytochrome P450 1A2 (Homo sapiens, UniProt P05177); experiment: Inhibition of recombinant human CYP1A2 expressed in Escherichia coli membranes co-expressing NADPH-P450 reductase assessed as reduction in ethoxyresorufin O-de-ethylation preincubated for 3 mins followed by NADPH addition and measured after 10 mins by fluorometric method
T1 sequence (P05177 whole entry): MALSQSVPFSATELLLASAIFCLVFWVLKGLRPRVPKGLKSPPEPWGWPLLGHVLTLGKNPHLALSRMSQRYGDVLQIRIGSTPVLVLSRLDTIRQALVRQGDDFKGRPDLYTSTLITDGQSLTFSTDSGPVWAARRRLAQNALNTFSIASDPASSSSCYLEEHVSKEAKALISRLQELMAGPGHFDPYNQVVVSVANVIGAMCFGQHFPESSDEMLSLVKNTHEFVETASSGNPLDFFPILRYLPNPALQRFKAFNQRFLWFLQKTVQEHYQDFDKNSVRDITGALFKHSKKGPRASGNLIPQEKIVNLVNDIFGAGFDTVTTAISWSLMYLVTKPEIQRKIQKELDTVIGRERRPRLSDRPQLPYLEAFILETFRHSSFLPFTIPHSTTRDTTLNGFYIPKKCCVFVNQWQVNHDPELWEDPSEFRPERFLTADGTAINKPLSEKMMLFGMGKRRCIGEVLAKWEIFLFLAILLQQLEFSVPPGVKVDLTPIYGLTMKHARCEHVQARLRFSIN

Cytochrome P450 1A1 = biological target: T2, Cytochrome P450 1A1 (Homo sapiens, UniProt P04798); experiment: Inhibition of recombinant human CYP1A1 expressed in Escherichia coli membranes co-expressing NADPH-P450 reductase assessed as reduction in ethoxyresorufin O-de-ethylation preincubated for 3 mins followed by NADPH addition and measured after 10 mins by fluorometric method
T2 sequence (P04798 whole entry): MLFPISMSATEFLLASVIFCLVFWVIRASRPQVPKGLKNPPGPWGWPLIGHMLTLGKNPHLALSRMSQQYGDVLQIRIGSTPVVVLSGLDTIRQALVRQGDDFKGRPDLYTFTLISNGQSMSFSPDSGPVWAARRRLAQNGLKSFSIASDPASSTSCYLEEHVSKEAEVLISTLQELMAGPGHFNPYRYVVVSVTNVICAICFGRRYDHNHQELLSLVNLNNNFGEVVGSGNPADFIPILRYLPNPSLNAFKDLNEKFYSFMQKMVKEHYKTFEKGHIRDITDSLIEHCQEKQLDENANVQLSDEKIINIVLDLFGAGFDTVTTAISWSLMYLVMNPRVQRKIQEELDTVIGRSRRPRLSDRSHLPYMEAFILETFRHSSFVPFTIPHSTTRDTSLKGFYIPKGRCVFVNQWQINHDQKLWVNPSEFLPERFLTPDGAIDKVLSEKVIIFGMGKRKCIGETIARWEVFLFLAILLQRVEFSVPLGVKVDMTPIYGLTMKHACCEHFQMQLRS

Cytochrome P450 1B1 = biological target: T3, Cytochrome P450 1B1 (Homo sapiens, UniProt Q16678); experiment: Inhibition of recombinant human CYP1B1 expressed in Escherichia coli membranes co-expressing NADPH-P450 reductase assessed as reduction in ethoxyresorufin O-de-ethylation preincubated for 3 mins followed by NADPH addition and measured after 10 mins by fluorometric method
T3 sequence (Q16678 whole entry): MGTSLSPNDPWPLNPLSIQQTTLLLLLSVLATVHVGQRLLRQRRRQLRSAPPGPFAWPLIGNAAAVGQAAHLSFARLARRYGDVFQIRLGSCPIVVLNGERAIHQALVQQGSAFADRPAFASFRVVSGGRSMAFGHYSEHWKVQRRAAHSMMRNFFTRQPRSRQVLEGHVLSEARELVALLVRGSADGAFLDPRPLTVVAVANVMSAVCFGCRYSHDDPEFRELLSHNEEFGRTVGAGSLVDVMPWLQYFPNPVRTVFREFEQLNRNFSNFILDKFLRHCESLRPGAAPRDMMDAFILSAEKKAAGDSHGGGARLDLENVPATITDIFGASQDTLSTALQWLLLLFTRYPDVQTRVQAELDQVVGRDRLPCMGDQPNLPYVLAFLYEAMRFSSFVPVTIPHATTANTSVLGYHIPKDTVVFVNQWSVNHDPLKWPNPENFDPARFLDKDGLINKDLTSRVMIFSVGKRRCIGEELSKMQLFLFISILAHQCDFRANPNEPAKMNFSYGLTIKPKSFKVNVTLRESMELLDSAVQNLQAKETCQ

Ratio IC50 (Homo sapiens [1])	Ratio IC50 (Homo sapiens [2])	Ratio IC50 (Homo sapiens [3])	IC50 (Cytochrome P450 1A2) [nM]	IC50 (Cytochrome P450 1A1) [nM]	IC50 (Cytochrome P450 1B1) [nM]	Compound
5.5	5.5	30.5	–	–	–	COc1cc(/C=C/c2cccs2)cc(OC)c1
0.4	27.3	10.3	1.5	41	4	COc1cc(/C=C/c2cccs2)cc(OCCn2ccnc2)c1
–	–	–	–	55	–	O=c1cc(-c2ccccc2)oc2c1ccc1ccccc12 [ALPHA-NAPHTHOFLAVONE]
